Test results: patent US8378115B2, “Monomethine dyes” (Thermo Fisher Scientific (Milwaukee) LLC, priority 2007, dated 2013)

What was measured:
40mer dsDNA [1] = test: Fluorescence enhancement of dye with 40mer dsDNA; assay type: binding
[2] = Absorption spectra of dye alone; assay type: physicochemical; details: for ε: in M-1·cm-1 (unit assumed)
Procedure: (§1) Stock solutions (8 mM) of each dye were prepared by dissolving each compound in dimethylsulfoxide (DMSO). Stock dye solutions were diluted to a desired concentration in tris-EDTA (TE) buffer (10 mM Tris, 1 mM EDTA, pH 8.0) immediately prior to use.
[…] […] Optical densities were determined at the absorbance maxima and the extinction coefficients were calculated using Beer's law.

40mer dsDNA [3] = test: Fluorescence enhancement of dye with 40mer dsDNA; assay type: binding; details: for Relative Fluorescent Intensity: 40-mer ds-DNA, TO = 1.0; for Ratio ds/ss: fluorescence 40-mer ds-DNA vs ss-DNA
Procedure: as §1
(§2) Stock solutions of λDNA and 40mer synthetic oligonucleotides (dsDNA and ssDNA), each at a concentration of 40 μM, were prepared in TE buffer. All DNA concentrations described are in base pairs of nucleotides. The DNA stock solutions were diluted to a desired concentration in TE buffer before being mixed with diluted dye solutions.
(§3) Fluorescence enhancement measurements of each dye were obtained by incubating dyes with λDNA, 40mer dsDNA, or 40mer ssDNA at a final concentration of 0.8 μM dye and 3.2 μM DNA for one minute. Fluorescence scans of the samples were performed with excitation wavelengths corresponding to the absorption maxima of the dyes. The resulting fluorescence intensities were compared to fluorescence intensities of Thiazole Orange (TO) and a compound equivalent to SYBR Green without the side chain (V02-06101), shown below,
(§4) [drawing 15] binding to λDNA, 40mer dsDNA, or 40mer ssDNA at a final concentration of 0.8 μM TO and 3.2 μM DNA for one minute, the same as for the tested dyes. The discrimination ratio between dsDNA and ssDNA was calculated by comparing the fluorescence intensities.

λDNA = test: Fluorescence enhancement of dye with λDNA; assay type: binding; details: for Fluorescence relative to TO / Fluorescence λ DNA/ssDNA: 0.8 μM dye, 3.2 μM DNA, one minute; for Ratio λ DNA/ss: fluorescence λ DNA vs ss-DNA; for Relative Fluorescent Intensity: λ DNA, TO = 1.0
Procedure: as §1, §2, §3, §4

[4] = tested on: 110 bp and 925 bp fragments from human β-actin gene, 309 bp fragment from human Survivin gene, 413 bp fragment from human integrin α5 gene; test: qRT-PCR detection of longer PCR amplicons; assay type: biochemical; details: 20 ng to 60 ng dye; 110, 309, 413, 925 bp amplicons
Procedure: Compound V02-07027 was also used to detect the formation of longer PCR amplicons using qRT-PCR: The following by fragments were used: 110 bp and 925 bp fragments from human β-actin gene, a 309 bp fragment from human Survivin gene, and a 413 bp fragment from human integrin α5 gene. Real time PCR was performed on a Stratagene® MX3000 (Stratagene, La Jolla Calif.) instrument using an excitation wavelength of 492 nm and an emission wavelength of 516 nm. Each amplification reaction (25 μl) contained 10 ng or 100 ng of human Genomic DNA, 200 μM of each dNTP, 1.5 mM MgCl2, 50 mM KCL, 10 mM Tris-HCl, 400 nM of each of forward and reverse primers, and 2.5 units of Taq DNA polymerase (Thermo Fisher Scientific (Milwaukee Wis.)). Varying amounts of V02-07027 or a dye such as SYBR® Green (Invitrogen) were added to the reaction mix. Reactions were performed in triplicate and the data points represented the average signal.

RNA = test: Low range RNA quantification by fluorescence; assay type: binding; details: low range RNA assay
Procedure: Detecting and quantifying small amounts of RNA is important in many determinations such as quantitating in vitro transcription yields and quantitating RNA concentration before performing RNA containing assays. RNA is typically quantitated by determining absorbance at 260 nm (λ260), but disadvantages include protein interference, DNA absorbance, and the need for high concentration of RNA (>4 μg/ml). More sensitive fluorescence methods must be used to quantitate small amounts of RNA. A widely used RNA quantitation dye is RiboGreen® (Invitrogen), where 1 ng/ml of RNA can be detected and quantitated with a standard fluorometer, fluorescence microplate reader, or filter fluorometer.
In one embodiment, the V11-03001 compound may be used to quantitate RNA.

rRNA = test: Fluorescence of dye with rRNA; assay type: binding

Row | Structure (SMILES) | binding preference dsDNA over ssRNA (40mer dsDNA [1]) | λex ([2]; Ethanol) [nm] | ε ([2]; Ethanol) | λex ([2]; TE Buffer, 8 μM dye) [nm] | ε ([2]; TE Buffer, 8 μM dye) | Relative Fluorescent Intensity (40mer dsDNA [3]) | Ratio ds/ss (40mer dsDNA [3]) | Fluorescence relative to TO (λDNA) | Fluorescence λ DNA/ssDNA (λDNA) | Ratio λ DNA/ss (λDNA) | Relative Fluorescent Intensity (λDNA) | binding to amplified DNA fragments [4] | fluorescence intensities versus RiboGreen (RNA) | relationship between fluorescence intensity and total RNA concentration (RNA; FIG. 10) | fluorescence enhancement when bound with RNA (rRNA) | Ratio rRNA/ds (rRNA; fluorescence rRNA vs 40-mer ds-DNA) | Ratio rRNA/ss (rRNA; fluorescence rRNA vs 40-mer ss-DNA) | fluorescence enhancement among all the dyes studied (λDNA; comparable to SYBR Green dye)
1 | CCN(CC)c1ccc2c(/C=C3\Oc4ccccc4N3CC)cc(-c3ccccc3)[o+]c2c1 [Dye V02-06188] | slight preference for binding to dsDNA over binding to ssRNA | 520 | 58,000 | 499 | 20,444 | 0.6 | 1.5 | 0.6 | 1.5 | 2 | 0.6 | – | – | – | – | – | – | –
2 | CCN(CC)c1ccc2c(/C=C3\Sc4ccccc4N3C)cc(N(C)CCCN(C)C)[o+]c2c1 [Dye V02-07027] | – | 477 | 60,000 | 475 | 39,987 | 5.3 | 2.6 | 3.6 | 2.8 | 2.8 | 3.6 | bound to amplified DNA fragments, generating a fluorescent signal | – | – | – | – | – | –
3 | CCN(CC)c1ccc2c(/C=C3\Sc4ccccc4N3C)cc(N3CC[N+](C)(CCO)CC3)[o+]c2c1 [Dye V11-03001] | – | 490 | 95,000 | 487 | 65,269 | 11.1 | 1.7 | – | – | 1.8 | 8.7 | – | comparable to those using RiboGreen® | linear relationship | significant fluorescence enhancement | 0.6 | 1.0 | strongest fluorescence enhancement
